Test results: ChEMBL document CHEMBL5096221, “Discovery of a Highly Potent and Orally Bioavailable STAT3 Dual Phosphorylation Inhibitor for Pancreatic Cancer Treatment” (J Med Chem, 2022)
Active and inactive are the calls of the source. The rule behind the calls is not given here.

Assays:
Cytochrome P450 2C19 = Cytochrome P450 2C19 (Homo sapiens, UniProt P33261); assay: Inhibition of CYP2C19 in human liver microsomes; format: ADME, Microsome
[1] = Cmax in BALB/c mouse at 1 mg/kg,iv measured upto 24 hrs by LC-MS/MS analysis; format: ADME, organism-based; design: dose 1 mg/kg, time < 24 hrs, route iv; conditions: in vivo
BXPC-3 [2] = assay: Anti-proliferative activity against human BXPC-3 cells assessed as cell growth inhibition incubated for 72 hrs by MTS assay; format: functional, cell-based; conditions: BXPC-3, 72 h
[3] = molecular target: T1, Signal transducer and activator of transcription 3 (Homo sapiens, UniProt P40763); assay: Thermal stabilization of STAT3 in human BXPC-3 cells at 10 microM at 47.4 degreeC incubated for 1 hrs by cellular thermal shift assay; format: cell-based
CFPAC-1 = assay: Inhibition of mitochondrial respiration in human CFPAC-1 cells assessed as reduction in oxygen consumption rate at 1 to 30 nM incubated for 1 hr by seahorse XF96 flux analyzer; format: functional, cell-based; conditions: dose 1-30 nM, DDE = dose-dependent effect
[4] = Toxicity in BALB/c mouse xenografted with human BXPC-3 cells assessed as effect on liver at 30 mg/kg,po administrated once daily for 8 weeks by H and E staining based microscopic analysis; format: organism-based; conditions: in vivo, 1344 h
[5] = Microsomal stability in dog liver microsomes assessed as intrinsic clearance incubated upto 40 mins in presence of NADPH by LC-MS/MS analysis; format: ADME, Canis lupus familiaris, Microsome; conditions: read-out: CLH
Capan-2 = assay: Anti-proliferative activity against human Capan-2 cells assessed as cell growth inhibition incubated for 72 hrs by MTS assay; format: functional, cell-based; conditions: Capan-2, 72 h
[6] = molecular target: T1, Signal transducer and activator of transcription 3; assay: Inhibition of STAT3 in human BXPC-3 cells assessed as inhibition of STAT3 phosphorylation at Ser 727 at 10 nM incubated for 22 to 24 hrs by western blot analysis; format: cell-based; conditions: time 22-24 hrs
[7] = molecular target: T1, Signal transducer and activator of transcription 3; assay: Inhibition of STAT3 in human Capan-2 cells assessed as inhibition of STAT3 phosphorylation at Ser 727 at 30 nM incubated for 4 to 24 hrs by western blot analysis; format: cell-based; conditions: time 4-24 hrs, TDE = time-dependent effect
Cytochrome P450 1A2 = molecular target: T2, Cytochrome P450 1A2 (Homo sapiens, UniProt P05177); assay: Inhibition of CYP1A2 in human liver microsomes using phenacetin as substrate incubated for 30 mins in presence of NADPH by HPLC analysis; format: ADME, Microsome
T2 sequence (P05177 whole entry): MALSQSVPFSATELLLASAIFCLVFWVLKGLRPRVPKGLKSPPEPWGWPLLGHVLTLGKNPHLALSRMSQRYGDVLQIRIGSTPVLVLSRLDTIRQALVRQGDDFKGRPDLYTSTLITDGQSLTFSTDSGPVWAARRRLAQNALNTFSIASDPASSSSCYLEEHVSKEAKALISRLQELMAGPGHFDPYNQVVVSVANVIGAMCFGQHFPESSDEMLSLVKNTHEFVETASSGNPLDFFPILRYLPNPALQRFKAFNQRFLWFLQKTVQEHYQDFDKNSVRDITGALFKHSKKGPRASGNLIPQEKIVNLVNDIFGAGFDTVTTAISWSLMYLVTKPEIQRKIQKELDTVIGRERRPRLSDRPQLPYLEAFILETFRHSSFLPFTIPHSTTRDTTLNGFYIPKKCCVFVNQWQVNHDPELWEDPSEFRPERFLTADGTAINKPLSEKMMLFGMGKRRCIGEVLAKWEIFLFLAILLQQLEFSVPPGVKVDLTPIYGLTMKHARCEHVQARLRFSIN

[8] = Microsomal stability in human liver microsomes assessed as intrinsic clearance incubated upto 40 mins in presence of NADPH by LC-MS/MS analysis; format: ADME, Microsome; conditions: read-out: CLH
[9] = Toxicity in BALB/c mouse xenografted with human BXPC-3 cells assessed as effect on kidney at 30 mg/kg,po administrated once daily for 8 weeks by H and E staining based microscopic analysis; format: organism-based; conditions: in vivo, 1344 h
[10] = molecular target: T1, Signal transducer and activator of transcription 3; assay: Inhibition of STAT3 in human BXPC-3 cells assessed as inhibition of STAT3 phosphorylation at Tyr 705 at 1 to 30 nM incubated for 22 to 24 hrs by western blot analysis; format: cell-based; conditions: dose 1-30 nM, time 22-24 hrs, DDE = dose-dependent effect
[11] = molecular target: T1, Signal transducer and activator of transcription 3; assay: Inhibition of STAT3 in human Capan-2 cells assessed as reduction of Cyclin D1 expression at 1 to 30 nM incubated for 22 to 24 hrs by western blot analysis; format: cell-based; conditions: dose 1-30 nM, time 22-24 hrs, DDE = dose-dependent effect
MIA PaCa-2 = assay: Anti-proliferative activity against human MIA PaCa-2 cells assessed as cell growth inhibition incubated for 72 hrs by MTS assay; format: functional, cell-based; conditions: MIA PaCa-2, 72 h
[12] = molecular target: T1, Signal transducer and activator of transcription 3; assay: Inhibition of STAT3 in human Capan-2 cells assessed as inhibition of STAT3 phosphorylation at Ser 727 at 10 nM incubated for 22 to 24 hrs by western blot analysis; format: cell-based; conditions: time 22-24 hrs
[13] = AUC (0-24hrs) in BALB/c mouse at 10 mg/kg,po measured upto 24 hrs by LC-MS/MS analysis; format: ADME, organism-based; design: dose 10 mg/kg, time < 24 hrs, route po; conditions: in vivo
BXPC-3 [14] = assay: Antitumor activity against human BXPC-3 cells xenografted BALB/c mouse model assessed as tumor growth inhibition at 10 mg/kg,po administrated once daily for 8 weeks; format: functional; conditions: BXPC-3, 1344 h, read-out: TGI
[15] = Toxicity in BALB/c mouse xenografted with human BXPC-3 cells assessed as body weight change at 30 mg/kg,po administrated once daily for 8 weeks; format: organism-based; conditions: in vivo, 1344 h
[16] = Toxicity in BALB/c mouse xenografted with human BXPC-3 cells assessed as effect on spleen at 10 mg/kg,po administrated once daily for 8 weeks by H and E staining based microscopic analysis; format: organism-based; conditions: in vivo, 1344 h
[17] = AUC (0-24hrs) in BALB/c mouse at 1 mg/kg,iv measured upto 24 hrs by LC-MS/MS analysis; format: ADME, organism-based; design: time < 24 hrs, dose 1 mg/kg, route iv; conditions: in vivo
[18] = Toxicity in BALB/c mouse xenografted with human BXPC-3 cells assessed as effect on kidney at 10 mg/kg,po administrated once daily for 8 weeks by H and E staining based microscopic analysis; format: organism-based; conditions: in vivo, 1344 h
[19] = molecular target: T1, Signal transducer and activator of transcription 3; assay: Thermal stabilization of STAT3 in human BXPC-3 cells at 10 microM at 50.6 degreeC incubated for 1 hrs by cellular thermal shift assay; format: cell-based
[20] = molecular target: T1, Signal transducer and activator of transcription 3; assay: Inhibition of STAT3 in human BXPC-3 cells assessed as reduction of c-Myc expression at 30 nM incubated for 4 to 24 hrs by western blot analysis; format: cell-based; conditions: time 4-24 hrs, TDE = time-dependent effect
[21] = Toxicity in BALB/c mouse xenografted with human BXPC-3 cells assessed as body weight change at 10 mg/kg,po administrated once daily for 8 weeks; format: organism-based; conditions: in vivo, 1344 h
[22] = molecular target: T1, Signal transducer and activator of transcription 3; assay: Inhibition of STAT3 in human HEK293T cells assessed as inhibition of IL-6 stimulated STAT3 phosphorylation by dual-luciferase reporter assay; format: cell-based
[23] = Toxicity in BALB/c mouse xenografted with human BXPC-3 cells assessed as effect on lung at 10 mg/kg,po administrated once daily for 8 weeks by H and E staining based microscopic analysis; format: organism-based; conditions: in vivo, 1344 h
Cytochrome P450 3A4 = Cytochrome P450 3A4 (Homo sapiens, UniProt P08684); assay: Inhibition of CYP3A4 in human liver microsomes using testosterone as substrate in presence of NADPH by HPLC analysis; format: ADME, Microsome
[24] = Microsomal stability in dog liver microsomes assessed as half life incubated upto 40 mins in presence of NADPH by LC-MS/MS analysis; format: ADME, Canis lupus familiaris, Microsome

T1 sequence (P40763 whole entry): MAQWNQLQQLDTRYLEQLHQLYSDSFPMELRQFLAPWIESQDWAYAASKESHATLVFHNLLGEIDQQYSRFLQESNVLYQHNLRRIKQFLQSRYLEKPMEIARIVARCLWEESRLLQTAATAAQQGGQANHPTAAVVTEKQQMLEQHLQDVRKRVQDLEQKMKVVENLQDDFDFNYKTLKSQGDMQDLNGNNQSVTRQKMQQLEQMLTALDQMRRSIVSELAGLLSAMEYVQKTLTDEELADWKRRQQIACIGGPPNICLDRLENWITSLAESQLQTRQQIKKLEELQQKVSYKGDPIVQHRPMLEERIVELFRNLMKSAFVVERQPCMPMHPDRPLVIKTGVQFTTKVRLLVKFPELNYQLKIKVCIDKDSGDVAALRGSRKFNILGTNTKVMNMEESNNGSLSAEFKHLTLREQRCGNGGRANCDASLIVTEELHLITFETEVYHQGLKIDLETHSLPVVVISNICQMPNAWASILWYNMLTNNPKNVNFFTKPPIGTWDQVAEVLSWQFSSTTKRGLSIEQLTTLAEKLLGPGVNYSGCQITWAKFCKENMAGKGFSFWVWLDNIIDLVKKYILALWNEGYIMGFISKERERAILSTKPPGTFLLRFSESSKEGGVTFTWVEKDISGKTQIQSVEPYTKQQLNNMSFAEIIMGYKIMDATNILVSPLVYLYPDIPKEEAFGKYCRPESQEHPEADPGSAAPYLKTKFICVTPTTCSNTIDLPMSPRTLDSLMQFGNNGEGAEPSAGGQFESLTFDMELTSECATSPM
Chain of Cytochrome P450 2C19 (P33261 whole entry): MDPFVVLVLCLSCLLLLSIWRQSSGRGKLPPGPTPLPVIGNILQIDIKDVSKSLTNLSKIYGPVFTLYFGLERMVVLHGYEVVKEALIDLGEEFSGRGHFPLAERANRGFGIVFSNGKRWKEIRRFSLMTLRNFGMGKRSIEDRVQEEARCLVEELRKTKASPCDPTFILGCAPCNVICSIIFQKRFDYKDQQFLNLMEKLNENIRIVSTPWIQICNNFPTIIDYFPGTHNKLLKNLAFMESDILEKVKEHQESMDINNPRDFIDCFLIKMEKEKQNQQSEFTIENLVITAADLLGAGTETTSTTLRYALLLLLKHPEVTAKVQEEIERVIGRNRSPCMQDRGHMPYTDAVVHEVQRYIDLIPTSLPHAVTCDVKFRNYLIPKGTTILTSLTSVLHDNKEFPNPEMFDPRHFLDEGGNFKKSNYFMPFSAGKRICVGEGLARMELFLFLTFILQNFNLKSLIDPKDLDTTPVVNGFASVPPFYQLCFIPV
Chain of Cytochrome P450 3A4 (P08684 whole entry): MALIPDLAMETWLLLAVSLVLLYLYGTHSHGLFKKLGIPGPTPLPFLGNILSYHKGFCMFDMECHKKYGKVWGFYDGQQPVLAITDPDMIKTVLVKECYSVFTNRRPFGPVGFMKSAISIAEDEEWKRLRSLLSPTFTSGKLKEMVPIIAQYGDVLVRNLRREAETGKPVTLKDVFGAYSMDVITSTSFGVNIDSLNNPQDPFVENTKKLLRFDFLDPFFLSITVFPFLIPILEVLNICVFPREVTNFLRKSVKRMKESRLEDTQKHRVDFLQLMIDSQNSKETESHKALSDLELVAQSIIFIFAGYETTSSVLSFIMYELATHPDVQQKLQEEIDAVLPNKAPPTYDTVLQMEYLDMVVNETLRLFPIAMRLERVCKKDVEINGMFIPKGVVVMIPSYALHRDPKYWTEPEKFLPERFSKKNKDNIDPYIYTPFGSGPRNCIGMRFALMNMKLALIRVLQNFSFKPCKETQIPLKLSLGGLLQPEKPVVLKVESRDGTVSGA

COc1ccc(-c2noc(-c3cnc(Oc4ccc5cc(C(=O)N6CCN(Cc7ccc(OCC(F)(F)F)cc7)CC6)n(C)c5c4)cn3)n2)cc1 gave an IC50 (Cytochrome P450 2C19) of over 50000 nM, a Cmax [1] of 2570 ng/mL and an IC50 (BXPC-3 [2]) of 0.4 nM. The Activity [3] was “Active”, the inhibition (CFPAC-1) was “Dde” and the Activity [4] was “Non-Toxic”. For the same compound, the microsomal CLint [5] was 18.4 µL/min/mg, the IC50 (Capan-2) was 1.9 nM and the inhibition [6] was “Active”. For the same compound, the inhibition [7] was “Tde”, the IC50 (Cytochrome P450 1A2) was over 50000 nM and the microsomal CLint [8] was 18.3 µL/min/mg. The Activity [9] was “Non-Toxic”, the inhibition [10] was “Dde” and the inhibition [11] was “Dde”. For the same compound, the IC50 (MIA PaCa-2) was 2.1 nM, the inhibition [12] was “Active” and the AUC(0-t) at 24 h [13] was 27600 ng·h/mL. For the same compound, the inhibition in vivo at 10 mg/kg (BXPC-3 [14]) was 69.2%, the Activity [15] was “Non-Toxic” and the Activity [16] was “Non-Toxic”. For the same compound, the AUC(0-t) at 24 h [17] was 9510 ng·h/mL, the Activity [18] was “Non-Toxic” and the Activity [19] was “Active”. The inhibition [20] was “Tde”, the Activity [21] was “Non-Toxic” and the IC50 [22] was 5.3 nM. For the same compound, the Activity [23] was “Non-Toxic”, the IC50 (Cytochrome P450 3A4) was over 50000 nM and the half-life [24] was 1.25 h.
